The assay has as its system BDF1 mice, P388 leukemia ip, median survival T/C. As to the kind of experiment: NCI In Vivo Anticancer Drug Screen. Data for tumor model P388 Leukemia (intraperitoneal) in B6D2F1 (BDF1) mice. The note with it: endpoint: median survival time, higher = longer survival. A digest of the protocol:
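T/C = treated-group survival ÷ vehicle-control survival; tumour transplanted into mice before dosing.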

Where [1] appears, read: dose: 100.0 mg/kg/injection, schedule: Q01DX009 (ip), vehicle: Klucel (hydroxypropylcellulose) (HPC).
[2] abbreviates: dose: 200.0 mg/kg/injection, schedule: Q01DX009 (ip), vehicle: Klucel (hydroxypropylcellulose) (HPC).
[3] abbreviates: dose: 400.0 mg/kg/injection, schedule: Q01DX009 (ip), vehicle: Klucel (hydroxypropylcellulose) (HPC).
Where [4] appears, read: dose: 50.0 mg/kg/injection, schedule: Q01DX009 (ip), vehicle: saline with Tween-80.
Setting [5] is: dose: 100.0 mg/kg/injection, schedule: Q01DX009 (ip), vehicle: saline with Tween-80.
Setting [6] is: dose: 100.0 mg/kg/injection, schedule: Q04DX003 (ip), vehicle: saline with Tween-80.
Setting [7] is: dose: 200.0 mg/kg/injection, schedule: Q01DX009 (ip), vehicle: saline with Tween-80.
Where [8] appears, read: dose: 200.0 mg/kg/injection, schedule: Q04DX003 (ip), vehicle: saline with Tween-80.
The mark [9] stands for this setting: dose: 400.0 mg/kg/injection, schedule: Q04DX003 (ip), vehicle: saline with Tween-80.
Where [10] appears, read: dose: 400.0 mg/kg/injection, schedule: Q01DX009 (ip), vehicle: saline with Tween-80.
The mark [11] stands for this setting: dose: 50.0 mg/kg/injection, schedule: Q04DX003 (ip), vehicle: saline.
The mark [12] stands for this setting: dose: 100.0 mg/kg/injection, schedule: Q04DX003 (ip), vehicle: saline.
The mark [13] stands for this setting: dose: 12.5 mg/kg/injection, schedule: Q01DX009 (ip), vehicle: saline.
[14] abbreviates: dose: 25.0 mg/kg/injection, schedule: Q01DX009 (ip), vehicle: saline.
[15] abbreviates: dose: 50.0 mg/kg/injection, schedule: Q01DX009 (ip), vehicle: saline.
Where [16] appears, read: dose: 100.0 mg/kg/injection, schedule: Q01DX009 (ip), vehicle: saline.

Structures are written as SMILES. “And” between values parts separate entries of the source, which are not always exact repeats. Equal entries are not always repeated. Inconclusive results and toxic doses are left out. Residues, ends and D or L forms follow the SMILES beside them.

This is an account of results in PubChem BioAssay AID328 (DTP/NCI, 2004).

For `CC(C)C(NC(=O)C(NC(=O)C(CCCN=C(N)N)NC(=O)C(N)CCCCN)C(C)C)C(N)=O` (configuration not stated) (H-KRVV-NH2; configuration not given here), the T/C by setting is: (dose: 12.5 mg/kg/injection, schedule: Q04DX003 (ip), vehicle: water) 101 % of control; (dose: 25.0 mg/kg/injection, schedule: Q04DX003 (ip), vehicle: water) 97 % of control; (dose: 50.0 mg/kg/injection, schedule: Q04DX003 (ip), vehicle: water) 107 % of control; (dose: 100.0 mg/kg/injection, schedule: Q04DX003 (ip), vehicle: water) 92 % of control; (dose: 200.0 mg/kg/injection, schedule: Q04DX003 (ip), vehicle: water) 93 % of control.
As to `Cc1ccccc1/C=C1\CC(C)(C)c2ccccc2C1=O`, the T/C by setting is: under setting [1], 100 % of control; (dose: 100.0 mg/kg/injection, schedule: Q04DX003 (ip), vehicle: Klucel (hydroxypropylcellulose) (HPC)) 95 % of control; under setting [2], 95 % of control; (dose: 200.0 mg/kg/injection, schedule: Q04DX003 (ip), vehicle: Klucel (hydroxypropylcellulose) (HPC)) 95 % of control; under setting [3], 104 % of control; (dose: 400.0 mg/kg/injection, schedule: Q04DX003 (ip), vehicle: Klucel (hydroxypropylcellulose) (HPC)) 95 % of control.
On to `Cc1ccc(N2CC(=O)N3CCCC(c4ccccc4)N3C(=O)C2)cc1` (configuration not stated), for which the T/C was 97 % of control (dose: 50.0 mg/kg/injection, schedule: Q01DX005 (ip), vehicle: saline with Tween-80); 94 % of control (dose: 100.0 mg/kg/injection, schedule: Q01DX005 (ip), vehicle: saline with Tween-80); 94 % of control (dose: 200.0 mg/kg/injection, schedule: Q01DX005 (ip), vehicle: saline with Tween-80).
For `O=c1cc(-c2ccccc2)ss1`, the T/C reads like this: (dose: 6.25 mg/kg/injection, schedule: Q01DX009 (ip), vehicle: saline with Tween-80) 98 % of control; (dose: 12.5 mg/kg/injection, schedule: Q01DX009 (ip), vehicle: saline with Tween-80) 102 % of control and 122 % of control; under setting [4], 110 % of control and 121 % of control; (dose: 50.0 mg/kg/injection, schedule: Q04DX003 (ip), vehicle: saline with Tween-80) 89 % of control; under setting [5], 121 % of control and 122 % of control; (dose: 100.0 mg/kg/injection, schedule: Q04DX003 (ip), vehicle: other) 105 % of control. The T/C was 99 % of control and 100 % of control under setting [6]; 111 % of control (dose: 178.0 mg/kg/injection, schedule: Q04DX003 (ip), vehicle: other); 110 % of control under setting [7]; 100 % of control (dose: 200.0 mg/kg/injection, schedule: Q04DX003 (ip), vehicle: other); 111 % of control under setting [8]; 111 % of control (dose: 266.0 mg/kg/injection, schedule: Q04DX003 (ip), vehicle: other). The T/C under setting [9] was 100 % of control.
For the compound `COC(=O)c1cccc(OC)c1C(=O)OC`, the T/C runs as follows: (dose: 100.0 mg/kg/injection, schedule: Q04DX002 (ip), vehicle: saline with Tween-80) 104 % of control; (dose: 200.0 mg/kg/injection, schedule: Q04DX002 (ip), vehicle: saline with Tween-80) 102 % of control.
For `NCCNCc1c[nH]c(=O)[nH]c1=O`, the T/C by setting is: under setting [4], 113 % of control; under setting [5], 111 % of control; under setting [7], 101 % of control.
Take `NC(=O)N/N=C/c1ccccc1N`: the T/C reads like this: under setting [1], 90 % of control; under setting [2], 100 % of control; under setting [3], 100 % of control.
Consider `CCCCCCC(CCCCCC)(CCCCCC)B1OCCO1`, for which the T/C under setting [5] was 100 % of control; the T/C under setting [6] is 100 % of control; the T/C under setting [7] is 104 % of control; the T/C under setting [8] was 109 % of control; the T/C under setting [10] is 123 % of control; the T/C under setting [9] is 104 % of control.
For the compound `COc1ccc(C(SCC(N)C(=O)O)(c2ccccc2)c2ccc(OC)cc2)cc1` (configuration not stated), the T/C by setting is: (dose: 3.0 mg/kg/injection, schedule: Q01DX009 (ip), vehicle: Klucel (hydroxypropylcellulose) (HPC)) 123 % of control; (dose: 4.8 mg/kg/injection, schedule: Q04DX003 (ip), vehicle: Klucel (hydroxypropylcellulose) (HPC)) 104 % of control; (dose: 7.0 mg/kg/injection, schedule: Q01DX009 (ip), vehicle: Klucel (hydroxypropylcellulose) (HPC)) 150 % of control; (dose: 7.2 mg/kg/injection, schedule: Q04DX003 (ip), vehicle: Klucel (hydroxypropylcellulose) (HPC)) 104 % of control; (dose: 10.0 mg/kg/injection, schedule: Q01DX009 (ip), vehicle: Klucel (hydroxypropylcellulose) (HPC)) 170 % of control; (dose: 11.0 mg/kg/injection, schedule: Q04DX003 (ip), vehicle: Klucel (hydroxypropylcellulose) (HPC)) 122 % of control. Besides, the T/C is, setting by setting: (dose: 16.0 mg/kg/injection, schedule: Q01DX009 (ip), vehicle: Klucel (hydroxypropylcellulose) (HPC)) 154 % of control; (dose: 25.0 mg/kg/injection, schedule: Q01DX009 (ip), vehicle: Klucel (hydroxypropylcellulose) (HPC)) 172 % of control and 181 % of control; (dose: 25.0 mg/kg/injection, schedule: Q04DX003 (ip), vehicle: saline) 154 % of control; (dose: 33.0 mg/kg/injection, schedule: Q04DX003 (ip), vehicle: saline) 209 % of control; (dose: 35.0 mg/kg/injection, schedule: Q01DX009 (ip), vehicle: Klucel (hydroxypropylcellulose) (HPC)) 204 % of control; under setting [11], 209 % of control and 213 % of control. For the same compound, the T/C is 231 % of control (dose: 75.0 mg/kg/injection, schedule: Q04DX003 (ip), vehicle: saline) and 95 % of control under setting [12].
Turning to `COc1ccc(/C=C/C(=O)c2ccc3c(c2)OCO3)cc1O`, the T/C by setting is: (dose: 3.12 mg/kg/injection, schedule: Q01DX009 (ip), vehicle: saline) 104 % of control and 106 % of control; (dose: 6.25 mg/kg/injection, schedule: Q01DX009 (ip), vehicle: saline) 93 % of control and 104 % of control; under setting [13], 100 % of control; under setting [14], 94 % of control and 110 % of control; under setting [15], 101 % of control and 107 % of control; under setting [11], 106 % of control. The T/C was 93 % of control and 96 % of control under setting [16]; 113 % of control under setting [12]; 104 % of control (dose: 200.0 mg/kg/injection, schedule: Q04DX003 (ip), vehicle: saline); 114 % of control (dose: 400.0 mg/kg/injection, schedule: Q04DX003 (ip), vehicle: saline).
Regarding `C=CCNC(=O)C(Br)(CC)CC`, the T/C under setting [13] is 100 % of control; the T/C under setting [14] was 100 % of control; the T/C under setting [15] was 88 % of control and 100 % of control.
Regarding `CC(=O)NC1C(S[As](C)C)OC(COC(C)=O)C(OC(C)=O)C1OC(C)=O` (configuration not stated), the T/C under setting [5] is 124 % of control.
As to `Nc1nc2ccccc2[nH]1`, the T/C under setting [15] is 105 % of control and the T/C under setting [16] was 102 % of control.
In the case of `Cc1nnc2c(=O)[nH]ccn12`, the T/C (dose: 100.0 mg/kg/injection, schedule: Q01DX001 (ip), vehicle: saline with Tween-80) is 106 % of control; the T/C (dose: 200.0 mg/kg/injection, schedule: Q01DX001 (ip), vehicle: saline with Tween-80) is 100 % of control; the T/C (dose: 400.0 mg/kg/injection, schedule: Q01DX001 (ip), vehicle: saline with Tween-80) is 103 % of control.
Take `CCOc1ccc(Br)cc1C=O`: the T/C reads like this: under setting [5], 100 % of control; under setting [6], 90 % of control; under setting [7], 100 % of control; under setting [8], 95 % of control; under setting [10], 100 % of control; under setting [9], 100 % of control.
For `CC(=Nc1ccccc1)C1=C(O)C(Cc2ccccc2)NC1=O` (configuration not stated), the T/C under setting [4] is 124 % of control.
In the case of `CCOc1c(Br)cc(Br)cc1C=O`, the T/C was 104 % of control under setting [5]; 109 % of control under setting [6]; 113 % of control under setting [7]; 109 % of control under setting [8]; 100 % of control under setting [10]; 95 % of control under setting [9].
